Experimental data taken from patent publication US7947695B2, “5-membered annelated heterocyclic pyrimidines as kinase inhibitors” (Janssen Pharmaceutica NV, priority 2005, dated 2011).

Columns and labels:
Type in all cases: biochemical
CDK4/cyclinD1 = CDK4/cyclinD1 (Homo sapiens, UniProt P11802); assay: In vitro filtration assay for CDK4 inhibitory activity (pRb phosphorylation, [33P]-ATP); conditions: GST-pRb substrate, 1 μM unlabeled ATP, 25° C. 45 minutes, read-out: cdk4 filter (pIC50) (converted)
Method: (§1) Compounds of the present invention were tested in an in vitro filtration assay assessing CDK4 activity by means of its pRb-phosphorylation activity using [^33P]-ATP as phosphor donor. The radioactive phosphorylated pRb is then captured on filtermats and the incorporated [^33P] quantitated using a phosphorage storage screen.
The CDK4 kinase reaction is performed at 25° C. for 45 minutes in a 96-well microtiterplate. The 25 μl reaction volume contains 50 mM Hepes pH 7.5, 10 mM NaF, 10 mM MgCl2, 1 mM Na3VO4, 1 μM unlabeled ATP, 1 mM DTT, 0.5 μCi AT^33P, 0.76 μg/well GST-pRb, 50 ng CDK4/cyclinD1/well and 0.2% compound in 100% DMSO.
(§2) The reaction is stopped by adding 5 μl of a 3% phosphoric acid solution. 10 μl of the reaction mixture is then spotted onto a Filtermat P30 filter (Wallac) and washed 3 times for 5 min. in 75 mM phosphoric acid and 1 time for 5 min. in methanol prior to drying and quantification on the Typhoon (Amersham) using a phosphorage storage screen.
(§3) For each experiment, controls (containing enzyme (complex) and DMSO without compound), a blank incubation (containing DMSO but no enzyme (complex) or compound) and samples (containing enzyme (complex) and compound dissolved in DMSO) were run in parallel. All compounds tested were dissolved and eventually further diluted in DMSO. […] In each test, the blank value was subtracted from both the control and the sample values. The control sample represented maximal enzyme activity. For each sample, the amount of cpm was expressed as a percentage of the mean cpm value of the controls. When appropriate, IC50-values (concentration of the drug, needed to reduce the enzyme activity to 50% of the control) were computed using linear interpolation between the experimental points just above and below the 50% level. Herein the effects of test compounds are expressed as pIC50 (the negative log value of the IC50-value).

AURORA A = molecular target: T1, AURORA A (Homo sapiens, UniProt O14965); assay: In vitro filtration assay for AURORA A inhibitory activity; conditions: Kemptide substrate, 1 μM unlabeled ATP, 25° C. 40 minutes, read-out: Aurora A see C.2 (pIC50) (converted)
T1 sequence (O14965 1-403): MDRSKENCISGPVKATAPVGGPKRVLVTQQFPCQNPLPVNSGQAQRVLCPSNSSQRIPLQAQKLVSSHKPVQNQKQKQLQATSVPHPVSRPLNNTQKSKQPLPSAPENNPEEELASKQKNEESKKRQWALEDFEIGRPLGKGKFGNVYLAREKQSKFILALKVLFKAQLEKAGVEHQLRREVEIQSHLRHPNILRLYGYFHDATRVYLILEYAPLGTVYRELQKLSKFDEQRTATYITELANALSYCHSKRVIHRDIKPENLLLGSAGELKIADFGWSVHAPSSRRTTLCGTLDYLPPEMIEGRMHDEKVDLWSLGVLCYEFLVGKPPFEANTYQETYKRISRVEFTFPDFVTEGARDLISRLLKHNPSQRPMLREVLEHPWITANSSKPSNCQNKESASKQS
Method: as §1, with “AURORA A” for “CDK4”, “substrate-phosphorylation” for “pRb-phosphorylation”, “substrate” for “pRb”
The Aurora-A kinase reaction is performed at 25° C. for 40 minutes in a 96-well microtiterplate. The 25 μl reaction volume contains 12 mM MOPS pH 7, 0.4 mM EDTA, 0.002% Brij35, 1% glycerol, 0.02% beta-mercapto-ethanol, 0.2 mg/ml BSA, 1 μM unlabeled ATP, […] [^33P]-ATP, 200 μM Kemptide, 3 ng Aurora A/well and 0.2% compound in 100% DMSO.
as §2, §3

AURORA B = AURORA B (Homo sapiens, UniProt Q96GD4); assay: In vitro filtration assay for AURORA B inhibitory activity; conditions: peptide (C(LRRWSLG)×4), 1 μM unlabeled ATP, 25° C. 40 minutes, read-out: Aurora B see C.3 (pIC50) (converted)
Method: as §1, with “AURORA B” for “CDK4”, “substrate-phosphorylation” for “pRb-phosphorylation”, “substrate” for “pRb”
The Aurora-B kinase reaction is performed at 25° C. for 40 minutes in a 96-well microtiterplate. The 25 μl reaction volume contains 60 mM Hepes pH 7.5, 3 mM MgCl2, 3 mM MnCl2, 3 μM Na3VO4, 50 μg/ml PEG20000, 1 μM unlabeled ATP, 1 mM DTT, 0.2 μCi AT^33P, 0.25 μg/well peptide (C(LRRWSLG)×4),100 ng Aurora-B/well and 0.2% compound in 100% DMSO. The reaction is stopped by adding 5 μl of a 3% phosphoric acid solution. 10 μl of the reaction mixture is then spotted onto a Filtermat P30 filter (Wallac) and washed 3 times for 5 min. in 75 mM phosphoric acid and 1 time for 5 min. in methanol prior to drying and quantification on the Typhoon (Amersham) using a phosphorage storage screen.
as §3

Sequence of AURORA B (Q96GD4 whole entry): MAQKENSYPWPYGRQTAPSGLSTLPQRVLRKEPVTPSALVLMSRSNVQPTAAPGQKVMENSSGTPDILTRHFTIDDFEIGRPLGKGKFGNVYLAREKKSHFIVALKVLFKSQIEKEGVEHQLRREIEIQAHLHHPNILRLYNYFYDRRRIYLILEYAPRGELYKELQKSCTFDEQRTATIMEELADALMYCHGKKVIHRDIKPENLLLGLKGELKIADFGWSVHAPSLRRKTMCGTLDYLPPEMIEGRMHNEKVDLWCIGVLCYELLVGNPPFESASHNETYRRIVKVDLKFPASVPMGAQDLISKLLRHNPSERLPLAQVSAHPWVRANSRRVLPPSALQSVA
Sequence of CDK4/cyclinD1 (P11802 whole entry): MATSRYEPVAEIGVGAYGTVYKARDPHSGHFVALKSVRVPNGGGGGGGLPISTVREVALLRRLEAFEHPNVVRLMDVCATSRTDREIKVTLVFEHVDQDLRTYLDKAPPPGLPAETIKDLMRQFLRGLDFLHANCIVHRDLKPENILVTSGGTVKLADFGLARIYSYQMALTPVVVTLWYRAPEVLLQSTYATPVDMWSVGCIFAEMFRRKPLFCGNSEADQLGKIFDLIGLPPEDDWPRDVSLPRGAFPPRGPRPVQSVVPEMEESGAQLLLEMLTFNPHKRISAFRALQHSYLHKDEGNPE
Sequence of CDK4/cyclinD1 (P24385 whole entry partner): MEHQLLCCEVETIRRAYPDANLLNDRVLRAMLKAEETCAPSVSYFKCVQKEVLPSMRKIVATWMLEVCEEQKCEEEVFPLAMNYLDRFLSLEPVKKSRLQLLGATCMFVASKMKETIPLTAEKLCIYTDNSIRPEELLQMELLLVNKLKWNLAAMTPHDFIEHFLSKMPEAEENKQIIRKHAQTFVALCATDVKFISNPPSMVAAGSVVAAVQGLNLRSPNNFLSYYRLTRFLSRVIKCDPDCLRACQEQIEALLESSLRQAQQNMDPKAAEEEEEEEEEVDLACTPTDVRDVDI

| Compound | IC50 (CDK4/cyclinD1) [nM] | IC50 (AURORA A) [nM] | IC50 (AURORA B) [nM] |
| --- | --- | --- | --- |
| CN1CCN(c2ccc(Nc3ncc4cnn([C@H]5C[C@@H]6CC[C@H]5C6)c4n3)cc2)CC1 (single isomer, unassigned) [Co. No. 23] | 5.01 | 100 | 158 |
| CN1CCN(Cc2ccc(Nc3ncc4cnn(C5CCCCC5)c4n3)cc2)CC1 [Co. No. 2] | 3.16 | 501 | > 10000 |
| CN1CCN(C(=O)c2ccc(Nc3ncc4cnn(C5CCCCC5)c4n3)cc2)CC1 [Co. No. 3] | 6.31 | 501 | > 10000 |
| c1cc(Nc2ncc3cnn(C4CCCCC4)c3n2)ccc1CNCCN1CCOCC1 [Co. No. 4] | 2.51 | 1000 | > 1580 |
| OCCN1CCN(c2ccc(Nc3ncc4cnn(C5CCCCC5)c4n3)cc2)CC1 [Co. No. 15] | 10 | 631 | > 10000 |
| OCCN1CCN(Cc2ccc(Nc3ncc4cnn(C5CCCCC5)c4n3)cc2)CC1 [Co. No. 37] | 7.94 | 200 | 398 |
| CN1CCC(NCc2ccc(Nc3ncc4cnn(C5CCCCC5)c4n3)cc2)CC1 [Co. No. 60] | 7.94 | 1580 | > 10000 |
| CN1CCN(c2ccc(Nc3ncc4cnn([C@H]5C[C@@H]6CC[C@H]5C6)c4n3)cc2)CC1 [compound 16] | 31.6 | 398 | > 10000 |
| c1cc(N2CCOCC2)ncc1Nc1ncc2cnn(C3CCCCC3)c2n1 [compound 17] | 20 | 794 | > 10000 |
| CN1CCN(c2ccc(Nc3ncc4cnn(C5CCCCC5)c4n3)cc2Cl)CC1 [compound 18] | 251 | 158 | > 10000 |
| CC(=O)N1CCN(c2ccc(Nc3ncc4cnn(C5CCCCC5)c4n3)cc2)CC1 [compound 19] | 5010 | > 10000 | > 10000 |
| OC1CCN(c2ccc(Nc3ncc4cnn(C5CCCCC5)c4n3)cc2)CC1 [compound 20] | 12.6 | 501 | > 10000 |
| NS(=O)(=O)N1CCN(c2ccc(Nc3ncc4cnn(C5CCCCC5)c4n3)cc2)CC1 [compound 21] | 39.8 | 200 | 3160 |
| c1ccc(N2CCN(c3ccc(Nc4ncc5cnn(C6CCCCC6)c5n4)cc3)CC2)nc1 [compound 22] | 501 | 39.8 | > 10000 |
| CC(C)(O)CN1CCN(c2ccc(Nc3ncc4cnn(C5CCCCC5)c4n3)cc2)CC1 [compound 24] | 126 | 251 | 3160 |
| CC(C)(C)OC(=O)N1CCN(c2ccc(Nc3ncc4cnn(C5CCCCC5)c4n3)cc2)CC1 [compound 25] | 1000 | 100 | 3160 |
| c1cc(N2CCNCC2)ccc1Nc1ncc2cnn(C3CCCCC3)c2n1 [compound 26] | 15.8 | 251 | 1260 |
| CN1CCN(c2ccc(Nc3ncc4cnn(C5CCOCC5)c4n3)cc2)CC1 [compound 27] | 200 | 501 | > 10000 |
| c1cc(Nc2ncc3cnn(C4CCCCC4)c3n2)ncc1N1CCOCC1 [compound 28] | 1000 | 2510 | > 10000 |

| Compound | IC50 (CDK4/cyclinD1) [nM] | IC50 (AURORA A) [nM] | IC50 (AURORA B) [nM] |
| --- | --- | --- | --- |
| CC(C)(C)OC(=O)N1CCN(c2ccc(Nc3ncc4cnn(C5CCCCC5)c4n3)nc2)CC1 [compound 29] | 6310 | > 10000 | > 10000 |
| c1cc(Nc2ncc3cnn(C4CCCCC4)c3n2)ncc1N1CCNCC1 [compound 30] | 50.1 | > 10000 | > 10000 |
| CC(C)(O)C(=O)N1CCN(c2ccc(Nc3ncc4cnn(C5CCCCC5)c4n3)cc2)CC1 [compound 31] | 31.6 |  |  |
| c1cc(Nc2ncc3cnn(C4CCCCC4)c3n2)ccc1CN1CCOCC1 [compound 33] | 631 | 15.8 | 7940 |
| NS(=O)(=O)N1CCN(Cc2ccc(Nc3ncc4cnn(C5CCCCC5)c4n3)cc2)CC1 [compound 34] | 63.1 | 158 | > 10000 |
| c1ccc(N2CCN(Cc3ccc(Nc4ncc5cnn(C6CCCCC6)c5n4)cc3)CC2)nc1 [compound 35] | 100 | 251 | > 10000 |
| CN1CCN(Cc2ccc(Nc3ncc4cnn([C@H]5C[C@@H]6CC[C@H]5C6)c4n3)cc2)CC1 [compound 36] | 100 | 251 | > 10000 |
| CC(C)(O)CN1CCN(Cc2ccc(Nc3ncc4cnn(C5CCCCC5)c4n3)cc2)CC1 [compound 38] | 12.6 | 1000 | 2000 |
| CN1CCN(Cc2ccc(N(C(=O)OC(C)(C)C)c3ncc4cnn([C@H]5C[C@@H]6CC[C@H]5C6)c4n3)cc2)CC1 [compound 39] | 1580 | 6310 | > 10000 |
| CN1CCN(Cc2ccc(Nc3ncc4cnn([C@H]5C[C@@H]6CC[C@H]5C6)c4n3)cc2)CC1 [compound 40] | 63.1 | 316 | 398 |
| CC(C)(C)OC(=O)N(c1ccc(CN2CCOCC2)cc1)c1ncc2cnn([C@H]3C[C@@H]4CC[C@H]3C4)c2n1 [compound 41] | 3980 | 3160 | 3160 |
| COCCCN1CCN(Cc2ccc(N(C(=O)OC(C)(C)C)c3ncc4cnn(C5CCCCC5)c4n3)cc2)CC1 [compound 42] | > 10000 | > 10000 | > 10000 |
| COCCCN1CCN(Cc2ccc(Nc3ncc4cnn(C5CCCCC5)c4n3)cc2)CC1 [compound 43] | 63.1 | 126 | 3980 |
| COCCCC(=O)N1CCN(Cc2ccc(N(C(=O)OC(C)(C)C)c3ncc4cnn(C5CCCCC5)c4n3)cc2)CC1 [compound 44] | > 10000 | > 10000 | > 10000 |
| COCCCC(=O)N1CCN(Cc2ccc(Nc3ncc4cnn(C5CCCCC5)c4n3)cc2)CC1 [compound 45] | 398 | 200 |  |
| CN1CCN(Cc2ccc(Nc3ncc4cnn(C5CCOCC5)c4n3)cc2)CC1 [compound 49] | 1260 | 1260 |  |
| CC(C)(C)OC(=O)N(c1ccc(CNC2CCOCC2)cc1)c1ncc2cnn(C3CCCCC3)c2n1 [compound 66] | 7940 |  | > 10000 |
| COCCCN1CCN(c2ccc(Nc3ncc4c(n3)N(C3CCCCC3)C(=O)C4)cc2)CC1 [compound 90] | 316 | 1580 |  |
| CC(C)(O)CN1CCC(NC(=O)c2ccc(Nc3ncc4cnn(C5CCCCC5)c4n3)cc2)CC1 [compound 98] | 398 | 316 |  |
